Measurements taken from patent US9730914B2, “3,5-diaminopyrazole kinase inhibitors” (Axikin Pharmaceuticals, Inc., priority 2014, dated 2017).

Experiments:
JAK2 = target: T1, JAK2 (Homo sapiens, UniProt O60674); experiment: Kinase competition binding assay (Kd, qPCR readout), JAK2; settings: for Kd: Kd class, JAK2, read-out: JAK2 Activity Level; for RCK:JAK2 selectivity ratio: ratio Kd (JAK2): Kd(RCK)
T1 construct: made in house; host or cells: E. coli BL21-derived host (T7 phage) or HEK-293
Procedure, shortened: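 Competition binding: DNA-tagged kinase (T7 phage or HEK-293-expressed), immobilized biotinylated ligand beads and compound in SeaBlock/PBS/Tween/DTT buffer, 1 hour at room temperature; bound kinase eluted and quantified by qPCR. Kd from 11-point 3-fold dilution, top 30,000 nM typically, final DMSO 1%.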

JAK3 = target: T2, JAK3 (Homo sapiens, UniProt P52333); experiment: Kinase competition binding assay (Kd, qPCR readout), JAK3; settings: for Kd: Kd class, JAK3, read-out: JAK3 Activity Level; for RCK:JAK3 selectivity ratio: ratio Kd (JAK3): Kd (RCK)
T2 construct: made in house; host or cells: E. coli BL21-derived host (T7 phage) or HEK-293
T2 sequence (P52333 811-1124 limits assumed): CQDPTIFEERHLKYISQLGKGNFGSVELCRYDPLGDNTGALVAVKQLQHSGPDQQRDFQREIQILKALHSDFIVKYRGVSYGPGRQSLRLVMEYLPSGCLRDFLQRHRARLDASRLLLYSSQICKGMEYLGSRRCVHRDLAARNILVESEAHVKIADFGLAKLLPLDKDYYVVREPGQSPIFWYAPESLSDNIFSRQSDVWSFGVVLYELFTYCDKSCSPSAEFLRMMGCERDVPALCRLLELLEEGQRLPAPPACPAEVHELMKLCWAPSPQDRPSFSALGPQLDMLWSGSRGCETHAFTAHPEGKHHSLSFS
Procedure, shortened: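 Kd values were derived from 11-point, 3-fold compound series at 1% DMSO, usually topping at 30,000 nM, with retesting from a lower top when under 0.5 nM. It competed with bead-immobilized ligand for 1 h at room temperature, and the captured kinase was measured by qPCR after elution.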

[1] = target: T3, kinase domain protein of RC kinase (RCK) (Homo sapiens, UniProt Q56UN5); experiment: Kinase competition binding assay (Kd, qPCR readout), RC kinase; settings: Kd class, read-out: RCK Activity Level
T3 construct: made in house; host or cells: E. coli BL21-derived host (T7 phage) or HEK-293
T3 sequence (Q56UN5 1061-1324 limits assumed): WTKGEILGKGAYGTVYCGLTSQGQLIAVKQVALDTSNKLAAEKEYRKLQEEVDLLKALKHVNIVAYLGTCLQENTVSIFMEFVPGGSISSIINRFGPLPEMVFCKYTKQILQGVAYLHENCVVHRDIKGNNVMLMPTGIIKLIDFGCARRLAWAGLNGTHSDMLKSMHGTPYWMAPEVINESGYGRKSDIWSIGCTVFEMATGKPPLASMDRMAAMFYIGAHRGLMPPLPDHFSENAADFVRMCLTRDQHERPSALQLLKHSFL
Procedure, shortened: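 Competition binding: DNA-tagged kinase (T7 phage or HEK-293-expressed) plus immobilized biotinylated ligand beads and compound, 1 h at room temperature, 1% DMSO. Bead-bound kinase eluted and quantified by qPCR. Kd from 11-point 3-fold dilution, top 30,000 nM, retested lower if below 0.5 nM.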

T1 sequence (O60674 840-1132 limits assumed): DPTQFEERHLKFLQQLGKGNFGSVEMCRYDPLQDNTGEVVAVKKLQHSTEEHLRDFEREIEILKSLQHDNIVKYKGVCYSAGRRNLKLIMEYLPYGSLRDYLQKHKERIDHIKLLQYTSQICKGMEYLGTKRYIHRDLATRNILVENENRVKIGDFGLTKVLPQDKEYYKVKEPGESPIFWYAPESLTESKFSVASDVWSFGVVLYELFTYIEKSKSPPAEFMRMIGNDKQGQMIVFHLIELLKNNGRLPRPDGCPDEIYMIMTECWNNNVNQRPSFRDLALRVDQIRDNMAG

Row | SMILES | Kd (JAK2) [nM] | RCK:JAK2 selectivity ratio (JAK2) | Kd (JAK3) [nM] | RCK:JAK3 selectivity ratio (JAK3) | Kd [1] [nM]
1 | NC(=O)c1c(Nc2ccc(CN3CCCC3)cc2)n[nH]c1NCc1ccc(O)cc1 [reference compound] | < 50 | D (D represents Kd(JAK2): Kd (RCK)<1) | < 50 | D (D represents Kd (JAK3): Kd(RCK)<1) | < 50
2 | Cc1cc(CNc2[nH]nc(Nc3ccc(CC#N)cc3)c2C(N)=O)cc(C)c1O [Compound 61, 3-((4-(cyanomethyl)phenyl)amino)-5-((4-hydroxy-3,5-dimethylbenzyl)amino)-1H-pyrazole-4-carboxamide] | > 1000 | C (C represents 1<Kd (JAK2): Kd (RCK)<10) | > 1000 | C (C represents 1<Kd (JAK3): Kd (RCK)<10) | > 1000
3 | Cc1cc(CNc2[nH]nc(Nc3ccc(N4CCC(Cl)CC4)cc3)c2C(N)=O)cc(C)c1O [Compound 34, 3-((4-(4-chloropiperidin-1-yl)phenyl)amino)-5-((4-hydroxy-3,5-dimethylbenzyl)amino)-1H-pyrazole-4-carboxamide] | > 1000 | B (B represents 10<Kd(JAK2): Kd (RCK)<100) | > 1000 | B (B represents 10<Kd (JAK3): Kd (RCK)<100) | 50 to 100
4 | CN1CCN(c2ccc(Nc3n[nH]c(NCc4ccc(O)cc4)c3C(N)=O)cc2Cl)CC1 [reference compound] | < 50 | D (D represents Kd(JAK2): Kd (RCK)<1) | < 50 | C (C represents 1<Kd (JAK3): Kd (RCK)<10) | < 50
5 | CC(=O)Nc1cccc(Nc2n[nH]c(NCc3ccc(O)cc3)c2C(N)=O)c1 [reference compound] | < 50 | D (D represents Kd(JAK2): Kd (RCK)<1) | < 50 | D (D represents Kd (JAK3): Kd(RCK)<1) | < 50
6 | NC(=O)c1c(Nc2ccc(N3CCC(N4CCCC4)CC3)nc2)n[nH]c1NCc1ccc(O)cc1 [reference compound] | < 50 | D (D represents Kd(JAK2): Kd (RCK)<1) | < 50 | C (C represents 1<Kd (JAK3): Kd (RCK)<10) | < 50
7 | Cc1cc(CNc2[nH]nc(Nc3ccc(N4CCC(N5CCCC5)CC4)nc3)c2C(N)=O)cc(C)c1O [Compound 49, 5-((4-hydroxy-3,5-dimethylbenzyl)amino)-3-((6-(4-(pyrrolidin-1-yl)piperidin-1-yl)pyridin-3-yl)amino)-1H-pyrazole-4-carboxamide] | 100 to 1000 | A (A represents Kd (JAK2): Kd (RCK)>100) | 100 to 1000 | A (A represents Kd (JAK3): Kd (RCK)>100) | < 50
8 | Cc1cc(Nc2n[nH]c(NCc3cc(C)c(O)c(C)c3)c2C(N)=O)cnc1N1CCOCC1 [Compound 12, 5-((4-hydroxy-3,5-dimethylbenzyl)amino)-3-((5-methyl-6-morpholinopyridin-3-yl)amino)-1H-pyrazole-4-carboxamide] | > 1000 | B (B represents 10<Kd(JAK2): Kd (RCK)<100) | > 1000 | B (B represents 10<Kd (JAK3): Kd (RCK)<100) | 100 to 1000
9 | NC(=O)c1c(Nc2ccc(CN3CCOCC3)cc2)n[nH]c1NCc1ccc(O)cc1 [reference compound] | < 50 | D (D represents Kd(JAK2): Kd (RCK)<1) | < 50 | D (D represents Kd (JAK3): Kd(RCK)<1) | < 50
10 | Cc1cc(CNc2[nH]nc(Nc3ccc(CN4CCCC4)cc3)c2C(N)=O)cc(C)c1O [Compound 35, 5-((4-hydroxy-3,5-dimethylbenzyl)amino)-3-((4-(pyrrolidin-1-ylmethyl)phenyl)amino)-1H-pyrazole-4-carboxamide] | 100 to 1000 | C (C represents 1<Kd (JAK2): Kd (RCK)<10) | > 1000 | B (B represents 10<Kd (JAK3): Kd (RCK)<100) | 50 to 100
11 | Cc1cc(CNc2[nH]nc(Nc3cccc(C#N)c3)c2C(N)=O)cc(C)c1O [Compound 43, 3-((3-cyanophenyl)amino)-5-((4-hydroxy-3,5-dimethylbenzyl)amino)-1H-pyrazole-4-carboxamide] | > 1000 | D (D represents Kd(JAK2): Kd (RCK)<1) | > 1000 | C (C represents 1<Kd (JAK3): Kd (RCK)<10) | > 1000
12 | Cc1cc(Nc2n[nH]c(NCc3ccc(O)cc3)c2C(N)=O)cnc1N1CCN(C(C)C)CC1 [reference compound] | < 50 | D (D represents Kd(JAK2): Kd (RCK)<1) | < 50 | C (C represents 1<Kd (JAK3): Kd (RCK)<10) | < 50
13 | Cc1cc(CNc2[nH]nc(Nc3ccc(F)cc3)c2C(N)=O)cc(C)c1O [Compound 42, 3-((4-fluorophenyl)amino)-5-((4-hydroxy-3,5-dimethylbenzyl)amino)-1H-pyrazole-4-carboxamide] | > 1000 | B (B represents 10<Kd(JAK2): Kd (RCK)<100) | > 1000 | B (B represents 10<Kd (JAK3): Kd (RCK)<100) | > 1000
14 | NC(=O)c1c(Nc2ccc(-n3cccc3)cc2)n[nH]c1NCc1ccc(O)cc1 [reference compound] | < 50 | D (D represents Kd(JAK2): Kd (RCK)<1) | < 50 | C (C represents 1<Kd (JAK3): Kd (RCK)<10) | < 50
15 | Cc1cc(Nc2n[nH]c(NCc3cc(C)c(O)c(C)c3)c2C(N)=O)ccc1N1CCOCC1 [Compound 8, 5-((4-hydroxy-3,5-dimethylbenzyl)amino)-3-((3-methyl-4-morpholinophenyl)amino)-1H-pyrazole-4-carboxamide] | > 1000 | B (B represents 10<Kd(JAK2): Kd (RCK)<100) | > 1000 | B (B represents 10<Kd (JAK3): Kd (RCK)<100) | 50 to 100
16 | NC(=O)c1c(Nc2ccc3[nH]ncc3c2)n[nH]c1NCc1ccc(O)cc1 [reference compound] | < 50 | D (D represents Kd(JAK2): Kd (RCK)<1) | < 50 | D (D represents Kd (JAK3): Kd(RCK)<1) | 50 to 100
17 | Cc1cc(CNc2[nH]nc(Nc3ccc(NC(=O)c4ccc(F)cc4)cc3)c2C(N)=O)cc(C)c1O [Compound 53, 3-((4-(4-fluorobenzamido)phenyl)amino)-5-((4-hydroxy-3,5-dimethylbenzyl)amino)-1H-pyrazole-4-carboxamide] | > 1000 | A (A represents Kd (JAK2): Kd (RCK)>100) | > 1000 | A (A represents Kd (JAK3): Kd (RCK)>100) | 100 to 1000
18 | Cc1cc(CNc2[nH]nc(Nc3ccc(-c4cnco4)cc3)c2C(N)=O)cc(C)c1O [Compound 38, 5-((4-hydroxy-3,5-dimethylbenzyl)amino)-3-((4-(oxazol-5-yl)phenyl)amino)-1H-pyrazole-4-carboxamide] | > 1000 | A (A represents Kd (JAK2): Kd (RCK)>100) | > 1000 | A (A represents Kd (JAK3): Kd (RCK)>100) | 100 to 1000
19 | NC(=O)c1c(Nc2ccc(N3CCN(c4ncccn4)CC3)cc2)n[nH]c1NCc1ccc(O)cc1 [reference compound] | < 50 | C (C represents 1<Kd (JAK2): Kd (RCK)<10) | < 50 | C (C represents 1<Kd (JAK3): Kd (RCK)<10) | < 50
20 | CC(C)C1CCN(c2ccc(Nc3n[nH]c(NCc4ccc(O)cc4)c3C(N)=O)cc2)CC1 [reference compound] | 100 to 1000 | C (C represents 1<Kd (JAK2): Kd (RCK)<10) | 100 to 1000 | C (C represents 1<Kd (JAK3): Kd (RCK)<10) | 50 to 100
21 | NC(=O)c1c(Nc2ccc(N)cc2)n[nH]c1NCc1ccc(O)cc1 [reference compound] | 50 to 100 | D (D represents Kd(JAK2): Kd (RCK)<1) | 100 to 1000 | D (D represents Kd (JAK3): Kd(RCK)<1) | 100 to 1000
22 | Cc1cc(CNc2[nH]nc(Nc3ccc(N4CCOCC4=O)cc3)c2C(N)=O)cc(C)c1O [Compound 59, 5-((4-hydroxy-3,5-dimethylbenzyl)amino)-3-((4-(3-oxomorpholino)phenyl)amino)-1H-pyrazole-4-carboxamide] | > 1000 | B (B represents 10<Kd(JAK2): Kd (RCK)<100) | > 1000 | B (B represents 10<Kd (JAK3): Kd (RCK)<100) | 100 to 1000
